Reference: the supplement of paper PMC11061612

Key:
AZD4320 = compound: CN(CC[C@H](CSC1=CC=CC=C1)NC2=C(C=C(C=C2)S(=O)(=O)NC(=O)C3=CC=C(C=C3)N4CCC(CC4)[C@H](C5=CC=CC=C5C6=CC=C(C=C6)Cl)O)S(=O)(=O)C(F)(F)F)CCO [AZD4320]; conditions: max 1 µM
In short: (§1)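 Cancer cell lines were seeded into 1536-well plates in 7.5 μl medium (DMEM/F12 or RPMI, 10% FBS), held 24 hours at 37°C and 5% CO2, and dosed for 72 hours with final DMSO typically 0.2%. Luminescence from CellTiter-Glo 2.0, scaled between blank-well and DMSO-well means, served as viability. The single-agent IC50 was obtained from dose-response fits with a non-linear mixed effects model, each fit being a two-parameter logistic curve.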

Selumetinib = compound: Cn1cnc2c(F)c(Nc3ccc(Br)cc3Cl)c(C(=O)NOCCO)cc21 [Selumetinib]; conditions: max 10 µM
In short: as §1

Etoposide = compound: COc1cc([C@@H]2c3cc4c(cc3[C@@H](O[C@@H]3O[C@@H]5CO[C@@H](C)O[C@H]5[C@H](O)[C@H]3O)[C@H]3COC(=O)[C@H]23)OCO4)cc(OC)c1O [Etoposide]; conditions: max 10 µM
In short: as §1

AZD0156 = compound: CN(C)CCCOc1ccc(-c2ccc3ncc4c(c3c2)n(C2CCOCC2)c(=O)n4C)cn1 [AZD0156]
In short: as §1

AZD6738 = compound: C[C@@H]1COCCN1C2=NC(=NC(=C2)C3(CC3)[S@](=N)(=O)C)C4=C5C=CNC5=NC=C4 [AZD6738]; conditions: max 10 µM
In short: as §1

MK-2206 = compound: NC1(c2ccc(-c3nc4ccn5c(=O)[nH]nc5c4cc3-c3ccccc3)cc2)CCC1 [MK-2206]; conditions: max 10 µM
In short: as §1

Taselisib = compound: Cc1nc(-c2cn3c(n2)-c2ccc(-c4cnn(C(C)(C)C(N)=O)c4)cc2OCC3)n(C(C)C)n1 [Taselisib]; conditions: max 10 µM
In short: as §1

AZD1775 = compound: C=CCn1c(=O)c2cnc(Nc3ccc(N4CCN(C)CC4)cc3)nc2n1-c1cccc(C(C)(C)O)n1 [AZD1775]
In short: as §1

Palbociclib = compound: CC(=O)c1c(C)c2cnc(Nc3ccc(N4CCNCC4)cn3)nc2n(C2CCCC2)c1=O [Palbociclib]; conditions: max 10 µM
In short: as §1

AZD8186 = compound: C[C@@H](Nc1cc(F)cc(F)c1)c1cc(C(=O)N(C)C)cc2c(=O)cc(N3CCOCC3)oc12 [AZD8186]
In short: as §1

AZD5991 = compound: Cc1c2c(nn1C)CSCc1cc(n(C)n1)CSc1cc(c3ccccc3c1)OCCCc1c(C(=O)O)n(C)c3c-2c(Cl)ccc13 [AZD5991]; conditions: max 1 µM
In short: as §1

SN-38 = compound: CCc1c2c(nc3ccc(O)cc13)-c1cc3c(c(=O)n1C2)COC(=O)[C@]3(O)CC [SN-38]; conditions: max 0.3 µM
In short: as §1

Trametinib = compound: CC(=O)Nc1cccc(-n2c(=O)n(C3CC3)c(=O)c3c(Nc4ccc(I)cc4F)n(C)c(=O)c(C)c32)c1 [Trametinib]; conditions: max 1 µM
In short: as §1

Gefitinib = compound: COc1cc2ncnc(Nc3ccc(F)c(Cl)c3)c2cc1OCCCN1CCOCC1 [Gefitinib]; conditions: max 10 µM
In short: as §1

AZD7648 = compound: Cc1cc2ncnn2cc1Nc1ncc2c(n1)n(C1CCOCC1)c(=O)n2C [AZD7648]; conditions: max 10 µM
In short: as §1

SRA737 = compound: N#Cc1cnc(Nc2cc(NC[C@H]3CNCCO3)c(C(F)(F)F)cn2)cn1 [SRA737]; conditions: max 10 µM
In short: as §1

Savolitinib = compound: C[C@@H](c1ccc2nccn2c1)n1nnc2ncc(-c3cnn(C)c3)nc21 [Savolitinib]; conditions: max 1 µM
In short: as §1

Olaparib = compound: O=C(c1cc(Cc2n[nH]c(=O)c3ccccc23)ccc1F)N1CCN(C(=O)C2CC2)CC1 [Olaparib]; conditions: max 10 µM
In short: as §1

AZD1390 = compound: CC(C)n1c(=O)n(C)c2cnc3cc(F)c(-c4ccc(OCCCN5CCCCC5)nc4)cc3c21 [AZD1390]; conditions: max 0.3 µM
In short: as §1

Venetoclax = compound: CC1(C)CCC(CN2CCN(c3ccc(C(=O)NS(=O)(=O)c4ccc(NCC5CCOCC5)c([N+](=O)[O-])c4)c(Oc4cnc5[nH]ccc5c4)c3)CC2)=C(c2ccc(Cl)cc2)C1 [Venetoclax]; conditions: max 1 µM
In short: as §1

Carboplatin = compound: C1CC(C1)(C(=O)[O-])C(=O)[O-].N.N.[Pt+2] [Carboplatin]; conditions: max 10 µM
In short: as §1

5-Fluorouracil = compound: O=c1[nH]cc(F)c(=O)[nH]1 [5-Fluorouracil]; conditions: max 20 µM
In short: as §1

Lapatinib = compound: CS(=O)(=O)CCNCc1ccc(-c2ccc3ncnc(Nc4ccc(OCc5cccc(F)c5)c(Cl)c4)c3c2)o1 [Lapatinib]; conditions: max 10 µM
In short: as §1

Paclitaxel = compound: CC(=O)O[C@H]1C(=O)[C@@]2(C)[C@H]([C@H](OC(=O)c3ccccc3)[C@]3(O)C[C@H](OC(=O)[C@H](O)[C@@H](NC(=O)c4ccccc4)c4ccccc4)C(C)=C1C3(C)C)[C@]1(OC(C)=O)CO[C@@H]1C[C@@H]2O [Paclitaxel]; conditions: max 3 µM
In short: as §1

Dasatinib = compound: CC1=C(C(=CC=C1)Cl)NC(=O)C2=CN=C(S2)NC3=CC(=NC(=N3)C)N4CCN(CC4)CCO [Dasatinib]; conditions: max 2 µM
In short: as §1

[1] = compound: O=C(Nc1ccc2[nH]nc(-c3ccncc3)c2c1)[C@@H]1CCN(CC(=O)N2CCN(c3ccc(-c4ncccn4)cc3)CC2)C1; conditions: max 5 µM
In short: as §1

AZD2811 = compound: CCN(CCO)CCCOc1ccc2c(Nc3cc(CC(=O)Nc4cccc(F)c4)[nH]n3)ncnc2c1 [AZD2811]; conditions: max 1 µM
In short: as §1

Crizotinib = compound: C[C@@H](Oc1cc(-c2cnn(C3CCNCC3)c2)cnc1N)c1c(Cl)ccc(F)c1Cl [Crizotinib]; conditions: max 10 µM
In short: as §1

AZD5153 = compound: COc1nnc2ccc(N3CCC(c4ccc(OCCN5CCN(C)C(=O)[C@H]5C)cc4)CC3)nn12 [AZD5153]; conditions: max 1 µM
In short: as §1

AZD5363 = compound: C1CN(CCC1(C(=O)N[C@@H](CCO)C2=CC=C(C=C2)Cl)N)C3=NC=NC4=C3C=CN4 [AZD5363]; conditions: max 10 µM
In short: as §1

Gemcitabine = compound: Nc1ccn([C@@H]2O[C@H](CO)[C@@H](O)C2(F)F)c(=O)n1 [Gemcitabine]; conditions: max 0.3 µM
In short: as §1

Prexasertib = compound: COc1cccc(OCCCN)c1-c1cc(Nc2cnc(C#N)cn2)n[nH]1 [Prexasertib]; conditions: max 1 µM
In short: as §1

Capivasertib = compound: C1CN(CCC1(C(=O)N[C@@H](CCO)C2=CC=C(C=C2)Cl)N)C3=NC=NC4=C3C=CN4 [Capivasertib]; conditions: max 10 µM
In short: as §1

Doxorubicin = compound: COc1cccc2c1C(=O)c1c(O)c3c(c(O)c1C2=O)C[C@@](O)(C(=O)CO)C[C@@H]3O[C@H]1C[C@H](N)[C@H](O)[C@H](C)O1 [Doxorubicin]; conditions: max 1 µM
In short: as §1

SG3199 = compound: CC1=CN2[C@@H](C1)C=NC3=CC(=C(C=C3C2=O)OC)OCCCCCOC4=C(C=C5C(=C4)N=C[C@@H]6CC(=CN6C5=O)C)OC [SG3199]; conditions: max 0.001 µM
In short: as §1

Alisertib = compound: COc1cc(Nc2ncc3c(n2)-c2ccc(Cl)cc2C(c2c(F)cccc2OC)=NC3)ccc1C(=O)O [Alisertib]; conditions: max 10 µM
In short: as §1

Row | Cell Line | IC50, cell viability 72 h (AZD4320) [µM] | IC50, cell viability 72 h (Selumetinib) [µM] | IC50, cell viability 72 h (Etoposide) [µM] | IC50, cell viability 72 h (AZD0156; max 3 µM) [µM] | IC50, cell viability 72 h (AZD6738) [µM] | IC50, cell viability 72 h (MK-2206) [µM] | IC50, cell viability 72 h (Taselisib) [µM] | IC50, cell viability 72 h (AZD1775; max 3 µM) [µM] | IC50, cell viability 72 h (Palbociclib) [µM] | IC50, cell viability 72 h (AZD8186; max 10 µM) [µM] | IC50, cell viability 72 h (AZD5991) [µM] | IC50, cell viability 72 h (SN-38) [µM] | IC50, cell viability 72 h (Trametinib) [µM] | IC50, cell viability 72 h (Gefitinib) [µM] | IC50, cell viability 72 h (AZD7648) [µM] | IC50, cell viability 72 h (SRA737) [µM] | IC50, cell viability 72 h (Savolitinib) [µM] | IC50, cell viability 72 h (Olaparib) [µM] | IC50, cell viability 72 h (AZD1390) [µM] | IC50, cell viability 72 h (Venetoclax) [µM] | IC50, cell viability 72 h (Carboplatin) [µM] | IC50, cell viability 72 h (5-Fluorouracil) [µM] | IC50, cell viability 72 h (Lapatinib) [µM] | IC50, cell viability 72 h (Paclitaxel) [µM] | IC50, cell viability 72 h (Dasatinib) [µM] | IC50, cell viability 72 h [1] [µM] | IC50, cell viability 72 h (AZD2811) [µM] | IC50, cell viability 72 h (Crizotinib) [µM] | IC50, cell viability 72 h (AZD5153) [µM] | IC50, cell viability 72 h (AZD5363) [µM] | IC50, cell viability 72 h (Gemcitabine) [µM] | IC50, cell viability 72 h (Prexasertib) [µM] | IC50, cell viability 72 h (AZD0156; max 1 µM) [µM] | IC50, cell viability 72 h (Capivasertib) [µM] | IC50, cell viability 72 h (AZD1775; max 1 µM) [µM] | IC50, cell viability 72 h (AZD8186; max 3 µM) [µM] | IC50, cell viability 72 h (Doxorubicin) [µM] | IC50, cell viability 72 h (SG3199) [µM] | IC50, cell viability 72 h (Alisertib) [µM]
1 | MKN1 (Gastric Carcinoma) | > 1 | > 10 | 1.25 | > 3 | 2.87 | > 10 | 0.573 | 0.64 | > 10 | > 10 | > 1 | 0.124 | > 1 | > 10 | > 10 | 4.85 | > 1 | > 10 | > 0.3 | > 1 | > 10 | > 20 | > 10 | 0.0134 | 0.56 | > 5 | > 1 | > 10 | 0.343 | > 10 | 0.161 |  |  |  |  |  |  |  | 
2 | NB13 (Neuroblastoma) | 0.139 | > 10 | 2.43 |  | 2.22 | > 10 | > 10 |  | > 10 |  | > 1 | 0.0137 | > 1 | > 10 | > 10 | 3.64 | > 1 | > 10 | > 0.3 | > 1 | > 10 | > 20 | > 10 |  | > 2 | > 5 | > 1 | 3.97 | 0.953 |  | > 0.3 | 0.0159 | > 1 | > 10 | 0.322 | > 3 | 0.194 | > 0.001 | 0.244
3 | NCI-H841 (Small Cell Lung Carcinoma) | > 1 | > 10 | > 10 | > 3 | > 10 | > 10 | > 10 | 1.69 | > 10 | > 10 | > 1 | > 0.3 | > 1 | > 10 | > 10 | > 10 | > 1 | > 10 | > 0.3 | > 1 | > 10 | > 20 | > 10 | 0.0266 | > 2 | > 5 | > 1 | > 10 | > 1 | > 10 | > 0.3 |  |  |  |  |  |  |  | 
4 | UACC-812 (Breast Carcinoma) | > 1 | > 10 | 9.33 | > 3 | > 10 |  | > 10 | > 3 | > 10 | > 10 | > 1 | > 0.3 | > 1 | > 10 | > 10 | > 10 | > 1 | > 10 | > 0.3 | > 1 | > 10 | > 20 | 7.47 | 1.92 | > 2 | > 5 | > 1 | > 10 | > 1 | > 10 | > 0.3 | 0.851 |  |  |  |  | > 1 | > 0.001 | > 10
